Test results published in patent publication US8455469B2, “Use of norgestimate as a selective inhibitor of TRPC3, TRPC6 and TRPC7 ion channels” (Sanofi, priority 2007, dated 2013).

System: protease-activated receptor (PAR)
Assay: Calcium release from ER in non-induced TRPC5 HEK293 FITR cells (PAR antagonism control)
Type: cell-based
Settings: 30 μM norgestimate, 10 min preincubation
Protocol: When these experiments were performed, no direct physiological stimuli of TRPC4 and TRPC5 were known. Therefore, both channels had to be stimulated indirectly, e.g. by application of trypsin, a protease-activated receptor (PAR) stimulating protease. […] PAR are G protein-coupled and their activation leads to calcium store depletion from endoplasmic reticulum (ER). This so called phosphatidylinositol (PI) response is independent of the channel's presence but consequently leads to activation of store-operated channels like TRPC4 and TRPC5. Basic prerequisite to measure the effect of norgestimate on both channels under these conditions is to exclude PAR antagonism of this potential channel inhibitor. […] Kinetics and quantity of calcium store release in cells treated with 30 μM norgestimate were not changed compared to untreated cells. Therefore, norgestimate is not a PAR antagonist and TRPC4 and TRPC5 activation via PAR stimulation is suitable to measure the channels inhibition by norgestimate.

C#C[C@]1(OC(C)=O)CC[C@H]2[C@@H]3CCC4=C/C(=N/O)CC[C@@H]4[C@H]3CC[C@@]21CC [norgestimate, D-17β-acetoxy-B-ethyl-17α ethinyl-gon-4-en-3-one oxime]
kinetics and quantity of calcium store release compared to untreated cells: not changed
